PMC10830420, “Structures, functions and adaptations of the human LINE-1 ORF2 protein” (Nature, 2023)

How the values were obtained:
[1] = molecular target: T1, ORF2p core (Homo sapiens, UniProt O00370); test: Gel-based L1 RT assay, ORF2p core, inhibition by NRTI triphosphates; format: biochemical; settings: 100 nM dNTP mixture
T1 construct: His6-MBP-3C-ORF2p (238-1061, ORFeus-Hs) in pET41; His6-MBP (3C protease site) (N, cleaved yes); made in house; host or cells: E. coli
Method: ORF2p core was preincubated with a template:primer containing a single site for the incorporation of a given nucleotide analogue. The primer/template sequence shown in the panel a illustrates the case of single incorporation of 3TC, with a single G for incorporation; the incoming template sequence for entecavir and carbovir has a single C, and for d4T a single A, each at position labeled “N”. Reactions were incubated for one minute at 37 °C with a 100 nM dNTP mixture and increasing concentrations of listed inhibitors. IC50 index, fold = IC50 (drug, µM) ÷ [dNTP] […] Fluorescein-labeled dNTPs (here, uracil-TP) are incorporated by ORF2p into a biotinylated primer, here shown against a poly(A) template. Detection is then achieved using FRET with a terbium cryptate labeled streptavidin, and the time-resolved technique and time-delayed emission from terbium cryptate reduces background from other fluorescent chemicals in the mix. In the presence of ORF2p RT inhibitors (RTIs), base incorporation is stopped and FRET signal is lost. […]
ORF2p reverse transcriptase activity assays […]
Gel-based RT activity assays consisted of pr e-incubating RTs with annealed DNA/RNA, DNA/DNA, or RNA/RNA 5’- end- radiolabeled or 5’-end-Cy5- o r FAM-labeled template:primer duplex or hybrid duplex and, where indicated, inhibitor in the presence of 0.1- 1 μ M dNTP or NTP mixture, 0.25 mM EDTA, 50 mM NaCl, and 25 mM Tris (pH 8) for 10 min at 37°C. Labeled nucleic acids were purchased from Dharmacon or IDT. Unless otherwise indicated, 15 μL reactions were initiated by the addition of 1.3 mM MgCl2, incubated for 10 min at 37 °C, and then stopped by the addition of 15 μL of formamide/EDTA (25 mM) mixture and incubated at 95 °C for 10 min. 3 μL reaction samples were subjected to denaturing 8 M urea 20% PAGE to resolve products followed by signal quantification (ImageQuant 5.2, GE Healthcare Bio- Sciences) through phosphorimaging (Amersham Typhoon 5, Cytivia). Scanned gel images are […]
minor products; original images are provided in an Extended Data file. […]

[2] = test system: L1 retrotransposition reporter in HeLa cells; test: LINE-1 dual luciferase retrotransposition assay in HeLa cells; format: cell-based, human; settings: Homo sapiens; HeLa cells, stable dual luciferase L1 reporter, normalized to cell viability; n = 3 wells; read-out: IC50
[3] = test system: interferon production in THP1 cells; test: Interferon reporter assay in THP1 cells (secreted luciferase); format: cell-based, human; settings: 50 µM; THP1 cells, 1 µM decitabine
Method: Culture Collection ( AT CC); THP1-Dual and THP1- Dual KO-TREX1 cells were from InvivoGen. All cell lines were maintained at 37 °C and 5% CO2 and validated and tested for mycoplasma. All plasmids and affinity reagents are described in Supplementary Tables 4-5 , respectively and available from Addgene at https://www.addgene.org/browse/article/28243724/. […]
Interferon reporter assay in THP1 cells
The type I interferon response was evaluated using THP1 -Dual and THP1-Dual KO-TREX1 cells (InvivoGen), which secrete a Lucia luciferase reporter gene under control of an interferon- responsive promoter. THP1-Dual KO-TREX1 cell were generated by stable biallelic knock-out of the TREX1 gene. Cell were treated with a dose titration of test compound in the presence of 1 µM 5- aza-2ʹ-deoxycytidine (decitabine, Sigma, #189825), which de- represses LINE-1121. Type 1 Interferon and cell viability were assessed after five days of treatment. QUANTI-LUC solution containing stabilizer was added to the cell supernatant and luminescence was measured on a p la t e reader, and cells were assessed for cell viability using CellTiter-Glo (Promega, #G9683) according to the manufacturer’s instructions.
LINE-1 dual luciferase retrotransposition assay
To assess the potency of inhibiting LINE-1 retrotransposon, a stable clonal dual luciferase L1 reporter cell line was generated and reported as described130,133 in the HeLa Tet-On 3G cell line (Takara, ). SB100x161 was used to integrate pRT006.2, a vector similar to pYX056 130 , which contains a bi-directional Tet-On promoter expressing both control Renilla luciferase and LINE-1 ORFeus-Hs Firefly luciferase antisense intron (AI) r epor t er 79,162. A single cell clone was selected with the highest doxycycline-induced luciferase signal vs baseline. Cells were mixed with compounds and induced for reporter expression with 500 ng/mL doxycycline (Sigma, #D9891) for 72 hours. Luminescence was measured using the Dual-Glo Luciferase Assay System (Promega, #E2940) following the manufacturer’s instructions, and the ratio of Firefly to Renilla Luciferase activity was used to measure […]
Telomerase activity assay
The human telomerase assay was performed with telomerase in MCF- 7 cell lysates using the Telo TAGGG Telomerase PCR ELISAplus kit (Roche). Test compounds (NTPs) were serially diluted in water, mixed with 0.2 µg of M CF- 7 lysate, and pre- incubated at room temperature for 15 minutes. Then the reaction was carried out for 30 minutes, amplified using PCR, and visualized colorimetrically per t he manufacturer’s instructions.
Cells were lysed in ice cold RIPA buffer containing 1x protease inhibitor tablet (Thermo), centrifuged for 10 minutes, and clarified lysates were quantified by BCA assay. […]

Cc1cn([C@H]2C=C[C@@H](CO)O2)c(=O)[nH]c1=O [d4T, stavudine]
IC50 index, fold = IC50 (drug, µM) ÷ [dNTP] (natural counterpart, 0.1 µM) [1]: 4.1 fold | IC50 ([1]; NTP forms of NRTIs, one minute at 37 °C): 400 to 600 nM | IC50 [2]: 3100 nM | baseline and decitabine-induced IFN production [3]: reduced
